Test results as given in ChEMBL document CHEMBL4311992, “Discovery of 3-(((9H-purin-6-yl)amino)methyl)-4,6-dimethylpyridin-2(1H)-one derivatives as novel tubulin polymerization inhibitors for treatment of cancer” (Eur J Med Chem, 2019).

Tests used:
[1] = target: Myosin light chain kinase 2, skeletal/cardiac muscle (Homo sapiens) (UniProt Q9H1R3); assay: Inhibition of recombinant full-length human MYLK2 assessed as residual activity at 10 uM using KKLNRTLSFAEPG as substrate measured after 40 mins in presence of [gamma33P]ATP by scintillation counting method
Myosin light chain kinase 2, skeletal/cardiac muscle (Homo sapiens), sequence (Q9H1R3 whole entry): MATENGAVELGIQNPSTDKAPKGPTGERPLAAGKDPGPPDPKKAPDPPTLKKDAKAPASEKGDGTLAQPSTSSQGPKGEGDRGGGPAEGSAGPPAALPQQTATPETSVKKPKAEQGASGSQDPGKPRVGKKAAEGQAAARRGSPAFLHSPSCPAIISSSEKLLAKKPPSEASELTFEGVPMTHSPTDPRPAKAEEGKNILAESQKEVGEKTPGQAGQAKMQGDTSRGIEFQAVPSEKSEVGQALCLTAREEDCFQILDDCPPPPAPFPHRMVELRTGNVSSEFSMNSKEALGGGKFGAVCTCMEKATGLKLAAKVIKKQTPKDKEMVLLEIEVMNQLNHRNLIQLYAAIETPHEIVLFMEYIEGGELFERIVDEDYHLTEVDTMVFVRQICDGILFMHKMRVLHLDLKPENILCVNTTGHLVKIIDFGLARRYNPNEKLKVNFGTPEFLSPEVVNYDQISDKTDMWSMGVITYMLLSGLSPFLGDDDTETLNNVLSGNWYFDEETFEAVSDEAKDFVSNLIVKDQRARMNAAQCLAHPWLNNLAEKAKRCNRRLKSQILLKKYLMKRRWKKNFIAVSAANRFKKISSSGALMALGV

[2] = test system: Hepatocyte growth factor receptor (Homo sapiens), P08581 [Y1230C]; assay: Inhibition of recombinant human MET A1209G/V1290L/Y1248C mutant (974 to end residues) assessed as residual activity at 10 uM using KKKGQEEEYVFIE as substrate measured after 40 mins in presence of [gamma33P]ATP by scintillation counting method
[3] = target: Macrophage colony-stimulating factor 1 receptor (Homo sapiens) (UniProt P07333); assay: Inhibition of recombinant human FMS (538 to end residues) assessed as residual activity at 10 uM using KKKSPGEYVNIEFG as substrate measured after 40 mins in presence of [gamma33P]ATP by scintillation counting method
Macrophage colony-stimulating factor 1 receptor (Homo sapiens), sequence (P07333 whole entry): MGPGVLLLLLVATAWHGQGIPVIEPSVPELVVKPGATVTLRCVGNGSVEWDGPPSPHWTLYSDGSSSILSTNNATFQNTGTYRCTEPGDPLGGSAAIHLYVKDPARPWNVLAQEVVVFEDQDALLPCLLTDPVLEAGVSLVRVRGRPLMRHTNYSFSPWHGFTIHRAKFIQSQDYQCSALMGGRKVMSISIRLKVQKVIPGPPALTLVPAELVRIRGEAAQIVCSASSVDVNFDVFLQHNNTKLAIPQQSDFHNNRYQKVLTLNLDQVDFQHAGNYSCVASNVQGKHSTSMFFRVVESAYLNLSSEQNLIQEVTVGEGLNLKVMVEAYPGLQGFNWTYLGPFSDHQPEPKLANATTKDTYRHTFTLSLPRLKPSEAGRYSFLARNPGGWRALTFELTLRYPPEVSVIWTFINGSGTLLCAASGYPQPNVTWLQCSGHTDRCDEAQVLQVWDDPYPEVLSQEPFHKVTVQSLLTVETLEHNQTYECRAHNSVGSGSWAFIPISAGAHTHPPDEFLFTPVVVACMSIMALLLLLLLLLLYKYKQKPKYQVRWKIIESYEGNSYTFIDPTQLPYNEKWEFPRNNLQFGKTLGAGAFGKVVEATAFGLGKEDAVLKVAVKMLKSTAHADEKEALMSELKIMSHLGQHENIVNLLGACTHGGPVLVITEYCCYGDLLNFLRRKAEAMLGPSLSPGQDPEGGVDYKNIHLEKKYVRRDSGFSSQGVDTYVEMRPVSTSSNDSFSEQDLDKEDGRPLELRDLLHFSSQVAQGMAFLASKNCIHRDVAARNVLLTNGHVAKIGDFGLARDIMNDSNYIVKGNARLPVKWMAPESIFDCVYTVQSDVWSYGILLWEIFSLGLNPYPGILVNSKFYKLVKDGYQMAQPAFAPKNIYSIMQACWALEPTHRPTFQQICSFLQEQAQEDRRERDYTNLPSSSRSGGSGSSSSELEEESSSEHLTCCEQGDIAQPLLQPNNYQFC

[4] = target: Casein kinase II subunit alpha (Homo sapiens) (UniProt P68400); assay: Inhibition of recombinant full length human CK2alpha2 assessed as residual activity at 10 uM using RRRDDDSDDD as substrate measured after 40 mins in presence of [gamma33P]ATP by scintillation counting method
SW-620 = assay: Induction of cell cycle arrest in human SW620 cells assessed as accumulation at G2/M phase after 24 hrs by propidium iodide-staining based flow cytometry; type: functional
[5] = target: NT-3 growth factor receptor (Homo sapiens) (UniProt Q16288); assay: Inhibition of human TrkC (510 to end residues) using GEEPLYWSFPAKKK as substrate measured after 40 mins in presence of [gamma33P]ATP by scintillation counting method; parameters: scale not given: the % may be the effect or the level left
NT-3 growth factor receptor (Homo sapiens), sequence (Q16288 32-839 limits assumed): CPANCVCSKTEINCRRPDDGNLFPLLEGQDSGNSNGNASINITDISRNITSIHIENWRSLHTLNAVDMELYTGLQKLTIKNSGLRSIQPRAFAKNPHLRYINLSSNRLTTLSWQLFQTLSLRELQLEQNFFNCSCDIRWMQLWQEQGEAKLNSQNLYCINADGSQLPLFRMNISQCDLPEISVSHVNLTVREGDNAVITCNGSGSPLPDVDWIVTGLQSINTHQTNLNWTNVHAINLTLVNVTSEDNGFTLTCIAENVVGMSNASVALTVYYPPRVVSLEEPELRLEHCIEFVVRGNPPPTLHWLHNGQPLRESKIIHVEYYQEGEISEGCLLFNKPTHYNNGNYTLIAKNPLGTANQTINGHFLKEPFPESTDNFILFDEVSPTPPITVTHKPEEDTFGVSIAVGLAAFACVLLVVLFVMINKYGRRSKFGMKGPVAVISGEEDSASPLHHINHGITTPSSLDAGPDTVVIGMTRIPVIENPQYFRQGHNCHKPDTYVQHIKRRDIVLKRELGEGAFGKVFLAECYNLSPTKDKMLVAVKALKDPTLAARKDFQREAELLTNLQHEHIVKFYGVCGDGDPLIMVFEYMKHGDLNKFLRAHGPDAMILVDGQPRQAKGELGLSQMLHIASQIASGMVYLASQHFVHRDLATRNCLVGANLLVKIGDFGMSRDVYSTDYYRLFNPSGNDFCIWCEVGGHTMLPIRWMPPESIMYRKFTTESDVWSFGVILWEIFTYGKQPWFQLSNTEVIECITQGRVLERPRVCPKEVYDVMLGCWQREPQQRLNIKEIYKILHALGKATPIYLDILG

[6] = target: Protein kinase C theta type (Homo sapiens) (UniProt Q04759); assay: Inhibition of recombinant full-length human PKCtheta assessed as residual activity at 10 uM using histone H1as substrate measured after 40 mins in presence of [gamma33P]ATP by scintillation counting method
[7] = target: SRSF protein kinase 2 (Homo sapiens) (UniProt P78362); assay: Inhibition of human SRPK2 (46 to end residues) using RSRSRSRSRSRSRSR as substrate measured after 40 mins in presence of [gamma33P]ATP by scintillation counting method; parameters: scale not given: the % may be the effect or the level left
SRSF protein kinase 2 (Homo sapiens), sequence (P78362 whole entry, looked up): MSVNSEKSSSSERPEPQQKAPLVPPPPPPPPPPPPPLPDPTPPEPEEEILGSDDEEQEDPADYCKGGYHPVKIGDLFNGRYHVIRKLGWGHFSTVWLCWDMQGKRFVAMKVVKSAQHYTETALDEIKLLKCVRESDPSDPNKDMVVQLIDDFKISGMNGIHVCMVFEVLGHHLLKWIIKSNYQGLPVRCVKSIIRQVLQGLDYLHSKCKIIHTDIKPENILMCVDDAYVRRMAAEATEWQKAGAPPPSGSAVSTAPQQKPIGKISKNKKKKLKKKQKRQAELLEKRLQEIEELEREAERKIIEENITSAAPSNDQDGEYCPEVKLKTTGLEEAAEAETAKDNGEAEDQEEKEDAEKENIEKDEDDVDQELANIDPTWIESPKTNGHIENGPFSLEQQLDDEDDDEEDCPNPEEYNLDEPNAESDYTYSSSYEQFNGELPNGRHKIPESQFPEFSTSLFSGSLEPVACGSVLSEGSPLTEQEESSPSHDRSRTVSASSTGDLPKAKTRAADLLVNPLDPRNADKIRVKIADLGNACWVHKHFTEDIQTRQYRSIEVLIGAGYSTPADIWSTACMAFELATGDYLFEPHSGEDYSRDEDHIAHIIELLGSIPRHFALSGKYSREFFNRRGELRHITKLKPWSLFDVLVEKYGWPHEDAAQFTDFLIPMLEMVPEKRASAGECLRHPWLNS

[8] = target: Tyrosine-protein kinase ABL2 (Homo sapiens) (UniProt P42684); assay: Inhibition of recombinant human ARG (38 to end residues) assessed as residual activity at 10 uM using EAIYAAPFAKKK as substrate measured after 40 mins in presence of [gamma33P]ATP by scintillation counting method
Tyrosine-protein kinase ABL2 (Homo sapiens), sequence (P42684 whole entry, the tested form may be a part, canonical isoform): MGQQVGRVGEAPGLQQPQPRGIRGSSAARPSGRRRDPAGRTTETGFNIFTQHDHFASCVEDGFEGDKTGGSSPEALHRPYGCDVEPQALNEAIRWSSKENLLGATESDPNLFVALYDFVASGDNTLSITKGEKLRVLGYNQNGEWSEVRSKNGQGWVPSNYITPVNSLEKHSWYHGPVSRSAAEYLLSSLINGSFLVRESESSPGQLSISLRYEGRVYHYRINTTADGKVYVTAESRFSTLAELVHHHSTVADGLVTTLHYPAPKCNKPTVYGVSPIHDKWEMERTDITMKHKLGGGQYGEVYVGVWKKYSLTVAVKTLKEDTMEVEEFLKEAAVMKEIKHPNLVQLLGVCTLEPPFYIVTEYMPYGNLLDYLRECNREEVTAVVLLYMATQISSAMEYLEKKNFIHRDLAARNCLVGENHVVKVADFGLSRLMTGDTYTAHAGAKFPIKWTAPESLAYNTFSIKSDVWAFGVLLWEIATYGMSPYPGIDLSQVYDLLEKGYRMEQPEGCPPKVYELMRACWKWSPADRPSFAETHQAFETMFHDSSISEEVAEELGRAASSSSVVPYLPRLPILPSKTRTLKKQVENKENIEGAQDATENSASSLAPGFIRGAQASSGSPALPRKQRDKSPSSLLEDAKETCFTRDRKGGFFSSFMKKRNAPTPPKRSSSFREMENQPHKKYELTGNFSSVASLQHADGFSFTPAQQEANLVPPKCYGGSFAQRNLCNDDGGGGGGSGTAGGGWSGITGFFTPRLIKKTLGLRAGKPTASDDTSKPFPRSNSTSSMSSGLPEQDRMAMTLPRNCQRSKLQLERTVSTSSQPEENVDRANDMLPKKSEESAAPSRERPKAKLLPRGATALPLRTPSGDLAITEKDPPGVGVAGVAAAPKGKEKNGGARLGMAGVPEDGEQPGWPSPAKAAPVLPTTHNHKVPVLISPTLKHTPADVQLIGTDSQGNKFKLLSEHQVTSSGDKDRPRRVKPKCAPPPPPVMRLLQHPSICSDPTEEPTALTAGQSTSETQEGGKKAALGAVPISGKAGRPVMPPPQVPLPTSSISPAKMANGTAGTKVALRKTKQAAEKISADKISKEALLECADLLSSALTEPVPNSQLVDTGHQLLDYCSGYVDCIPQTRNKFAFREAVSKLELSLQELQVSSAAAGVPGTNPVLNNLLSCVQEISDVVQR

[9] = target: Casein kinase I isoform delta (Homo sapiens) (UniProt P48730); assay: Inhibition of recombinant human CK1delta (1 to 294 residues) assessed as residual activity at 10 uM using KRRRALS(p)VASLPGL as substrate measured after 40 mins in presence of [gamma33P]ATP by scintillation counting method
Casein kinase I isoform delta (Homo sapiens), sequence (P48730 whole entry, looked up, the tested form may be a part, canonical isoform): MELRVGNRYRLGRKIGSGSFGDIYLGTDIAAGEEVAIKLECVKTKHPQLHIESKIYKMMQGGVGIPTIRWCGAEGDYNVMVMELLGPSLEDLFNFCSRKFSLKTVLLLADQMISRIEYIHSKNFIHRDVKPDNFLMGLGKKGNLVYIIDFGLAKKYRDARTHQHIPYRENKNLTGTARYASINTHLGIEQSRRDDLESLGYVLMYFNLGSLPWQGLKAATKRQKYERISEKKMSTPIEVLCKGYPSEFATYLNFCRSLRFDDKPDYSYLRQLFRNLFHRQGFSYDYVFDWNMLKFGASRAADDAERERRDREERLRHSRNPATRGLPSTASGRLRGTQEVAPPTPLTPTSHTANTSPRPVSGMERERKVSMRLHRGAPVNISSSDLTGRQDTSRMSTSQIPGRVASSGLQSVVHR

[10] = target: Serine/threonine-protein kinase 32A (Homo sapiens) (UniProt Q8WU08); assay: Inhibition of recombinant full-length human STK32A assessed as residual activity at 10 uM using casein as substrate measured after 120 mins in presence of [gamma33P]ATP by scintillation counting method
Serine/threonine-protein kinase 32A (Homo sapiens), sequence (Q8WU08 whole entry): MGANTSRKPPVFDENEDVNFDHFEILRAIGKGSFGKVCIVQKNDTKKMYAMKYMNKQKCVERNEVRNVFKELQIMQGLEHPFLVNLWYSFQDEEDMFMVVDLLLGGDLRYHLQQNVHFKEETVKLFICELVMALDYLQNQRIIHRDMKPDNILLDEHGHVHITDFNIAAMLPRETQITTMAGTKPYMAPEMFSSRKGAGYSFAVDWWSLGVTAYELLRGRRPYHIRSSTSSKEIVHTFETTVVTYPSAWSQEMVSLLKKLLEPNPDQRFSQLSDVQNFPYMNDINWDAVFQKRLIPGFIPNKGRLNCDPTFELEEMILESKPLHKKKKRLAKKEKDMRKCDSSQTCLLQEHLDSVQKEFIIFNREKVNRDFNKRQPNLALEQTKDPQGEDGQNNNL

## Cc1cc(C)c(CNc2nc(Cl)nc3c2ncn3C2CCCC2)c(=O)[nH]1
[1]
  Activity: 98%
[2]
  Activity: 110%
[3]
  Activity: 102%
[4]
  Activity: 89.5%
SW-620
  Activity: Dose-dependent effect
[5]
  Activity: 110%
[6]
  Activity: 103%
[7]
  Activity: 106%
[8]
  Activity: 115%
[9]
  Activity: 103%
[10]
  Activity: 100%
